{
  "source": "patent US20130347134A1",
  "about": "“TRANSGENIC VON WILLEBRAND FACTOR ANIMALS AND USES THEREOF” (priority 2012, published 2013)",
  "key": {"[1]": {"molecular_target": "ADP receptor on murine platelets (Mus musculus, UniProt Q9CPV9)", "sequence (Q9CPV9 whole entry)": "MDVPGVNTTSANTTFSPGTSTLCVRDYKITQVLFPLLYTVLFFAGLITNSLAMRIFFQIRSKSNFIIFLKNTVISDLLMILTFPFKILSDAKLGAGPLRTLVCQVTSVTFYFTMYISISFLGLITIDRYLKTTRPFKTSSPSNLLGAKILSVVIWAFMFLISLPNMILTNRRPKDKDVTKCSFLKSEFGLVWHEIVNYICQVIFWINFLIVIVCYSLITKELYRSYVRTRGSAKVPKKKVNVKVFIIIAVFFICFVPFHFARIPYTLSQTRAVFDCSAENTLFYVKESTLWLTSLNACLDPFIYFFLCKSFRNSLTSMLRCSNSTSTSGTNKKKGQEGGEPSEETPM", "settings": "FIG. 46A", "description": "(§1) Tail bleeding assay. […] For studies involving PLAVIX, animals received a 50 mg/kg oral dose of the drug the day before and 2 hours prior to the administration of human platelets."}, "[2]": {"system": "thrombus", "settings": "maximal effective dose 50 mg/kg the day before and 2 hours prior; cited from earlier work"}, "[3]": {"system": "human platelets", "assay": "Ex vivo platelet adhesion, parallel-plate flow chamber, human whole blood over surface-immobilized VWF or VWF-A1, 1600 s^-1", "type": "cell-based", "settings": "for translocation velocities of human platelets: on plasma VWF, mean±s.e.m, n=4", "description": "Ex vivo platelet adhesion studies. Experiments were performed in a parallel-plate flow chamber as previously described (Offermanns, S., et al., 2006). For studies involving plasma VWF, a polyclonal anti-VWF antibody (Dako) was absorbed overnight (4° C.) to a six well tissue culture plate. Subsequently, the plate was washed and non-specific interactions blocked by the addition of TBS containing 3% BSA, pH 7.4 (1 hour, 37° C.). Human or murine plasma obtained from heparinized whole blood was added and the plates placed at 37° C. for an additional 2 hours. Generation, purification, and surface-immobilization of recombinant VWF-A1 proteins was performed as previously described (Doggett, T. A. et al., 2002). Both human and murine VWF-A1 constructs consist of amino acid residues 1238 to 1471, with a single intra-disulfide bond formed between residues 1272 and 1458 and were generated in bacteria. Citrated whole blood (150 μl) collected via cardiac puncture from anesthetized homozygous VWF^1326R>H or WT mice or from venopuncture from human volunteers was perfused over the immobilized substrates at a wall shear rate of 1600 s^−1 for 4 minutes, followed by washing with Tyrode's buffer under the identical flow conditions. The number of platelets attached per unit area (0.07 mm^2) and translocation velocities were determined by off-line analysis (Image-Pro Plus, Media Cybernetics). For GPIb α inhibition studies, the function-blocking mAb 6D1 (20 μg/ml) or mAb SZ2 (20 μg/ml; Beckman Coulter, Brea, Calif.) was added to anticoagulated human blood for 30 minutes prior to use. Experiments were performed in triplicate on two separate days. An ELISA was used to ensure equivalent coating concentration of plasma and recombinant proteins (Denis, C. et al., 1998)."}, "[4]": {"molecular_target": "murine αIIb β3 (Mus musculus, UniProt O54890+Q9QUM0)", "sequence (Q9QUM0 32-1033)": "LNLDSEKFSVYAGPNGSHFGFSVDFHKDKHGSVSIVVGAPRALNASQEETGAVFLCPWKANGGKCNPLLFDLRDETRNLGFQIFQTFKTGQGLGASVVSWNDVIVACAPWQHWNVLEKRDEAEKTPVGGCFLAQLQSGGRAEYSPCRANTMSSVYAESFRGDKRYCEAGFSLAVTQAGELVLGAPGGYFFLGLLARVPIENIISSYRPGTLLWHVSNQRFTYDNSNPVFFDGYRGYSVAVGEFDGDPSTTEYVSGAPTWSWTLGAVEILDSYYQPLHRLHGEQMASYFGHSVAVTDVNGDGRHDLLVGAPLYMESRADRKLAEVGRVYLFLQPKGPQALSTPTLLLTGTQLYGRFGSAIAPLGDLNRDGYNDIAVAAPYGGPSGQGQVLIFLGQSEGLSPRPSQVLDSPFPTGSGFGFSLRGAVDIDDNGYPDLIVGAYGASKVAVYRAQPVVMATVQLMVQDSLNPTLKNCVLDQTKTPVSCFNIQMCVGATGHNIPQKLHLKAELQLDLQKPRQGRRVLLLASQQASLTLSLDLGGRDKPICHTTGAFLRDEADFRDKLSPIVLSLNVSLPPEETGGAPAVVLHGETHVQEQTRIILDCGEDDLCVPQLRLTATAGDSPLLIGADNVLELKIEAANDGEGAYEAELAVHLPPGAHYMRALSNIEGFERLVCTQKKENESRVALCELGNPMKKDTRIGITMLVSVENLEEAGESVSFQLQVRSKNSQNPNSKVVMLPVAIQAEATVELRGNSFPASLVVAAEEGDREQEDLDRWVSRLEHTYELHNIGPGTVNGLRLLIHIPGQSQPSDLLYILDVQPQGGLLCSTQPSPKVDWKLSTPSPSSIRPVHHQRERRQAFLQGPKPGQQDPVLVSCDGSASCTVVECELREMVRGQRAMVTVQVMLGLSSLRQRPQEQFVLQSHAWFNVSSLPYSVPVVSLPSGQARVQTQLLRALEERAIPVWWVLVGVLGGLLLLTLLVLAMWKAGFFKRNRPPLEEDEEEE", "sequence (O54890 26-787)": "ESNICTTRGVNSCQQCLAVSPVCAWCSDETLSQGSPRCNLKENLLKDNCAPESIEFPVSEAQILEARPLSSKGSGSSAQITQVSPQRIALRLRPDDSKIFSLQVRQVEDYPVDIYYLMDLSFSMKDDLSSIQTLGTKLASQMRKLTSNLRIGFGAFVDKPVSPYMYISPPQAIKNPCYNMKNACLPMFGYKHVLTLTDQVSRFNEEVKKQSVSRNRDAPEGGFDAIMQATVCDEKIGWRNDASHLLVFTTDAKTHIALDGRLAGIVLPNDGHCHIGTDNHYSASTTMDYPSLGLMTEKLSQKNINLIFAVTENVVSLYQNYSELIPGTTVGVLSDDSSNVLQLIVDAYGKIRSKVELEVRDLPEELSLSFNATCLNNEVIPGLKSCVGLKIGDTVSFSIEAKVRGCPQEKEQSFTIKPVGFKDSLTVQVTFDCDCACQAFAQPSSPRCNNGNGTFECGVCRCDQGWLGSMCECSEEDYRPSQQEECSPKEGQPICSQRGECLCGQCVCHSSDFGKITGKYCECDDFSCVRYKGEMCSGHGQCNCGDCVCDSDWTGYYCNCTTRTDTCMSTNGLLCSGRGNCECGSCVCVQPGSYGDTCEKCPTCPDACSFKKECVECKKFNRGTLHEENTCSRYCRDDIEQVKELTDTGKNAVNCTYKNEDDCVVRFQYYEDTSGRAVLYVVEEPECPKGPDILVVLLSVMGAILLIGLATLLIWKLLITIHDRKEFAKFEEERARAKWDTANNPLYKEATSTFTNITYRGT", "settings": "cited from earlier work"}, "[5]": {"molecular_target": "T1, αIIb β3 (Homo sapiens, UniProt P05106+P08514)", "T1 construct": "endogenous in cells; host or cells: platelets of treated patients", "settings": "intravenous bolus 0.25 mg/kg, then 0.125 μg/kg/min; cited from earlier work"}, "[6]": {"system": "human platelets", "assay": "Tail bleeding assay, human platelet-induced hemostasis in homozygous VWF^1326R>H mice", "type": "in vivo, mouse", "settings": "for human platelet-induced hemostatic clot formation: drug given to homozygous VWF^1326R>H mice receiving human platelets", "description": "as §1\nThis assay provides an indirect measure of the ability of platelets and VWF to support hemostasis by interacting with the injured vessel wall. It also indirectly determines the function of multiple receptors and ligands on platelets that are required to form a hemostatic plug. […] It is performed by immersing the severed tip (10 mm) of the animal's tail in isotonic saline at 37° C. and monitoring the length of time required for bleeding to cease. Homozygous mutant mice will be infused with an equal volume of either saline or purified human platelets. Platelet specific antibodies or drugs will be administered as described above and their ability to prolong bleeding time evaluated."}, "[7]": {"system": "human platelets", "assay": "Parallel plate flow system, human platelets over immobilized plasma VWF of VWF HA1 mice", "type": "cell-based"}, "[8]": {"system": "mouse platelets", "assay": "Parallel plate flow system, WT mouse blood over immobilized plasma VWF of VWF HA1 mice", "type": "cell-based", "from_the_text": "WT mouse blood was then infused over the immobilized substrate."}, "[9]": {"system": "human platelets", "assay": "Optical aggregometry, human platelets resuspended in platelet poor plasma of VWF^R1326H or VWF^HA1 mice", "type": "cell-based", "description": "Although the R1326H mutation in murine VWF can support human platelet mediated hemostasis and thrombosis, there still exists a major difference between the human and mouse A1 domains. Specifically, only the human form can be activated to bind to GPIb alpha on human platelets. Ristocetin is an antibiotic that was taken off the market due to its ability to cause von Willebrand factor to bind the platelet receptor GPIb alpha, so when ristocetin is added to normal blood, it causes platelet clumping. […] Thus, murine VWF bearing the majority of the human A1 domain functions in manner more closely to that in humans, making it a better biological platform for studying human platelet function and the effects of antiplatelet agents for use in human beings."}, "[10]": {"system": "murine platelet rich plasma", "assay": "Ristocetin-induced platelet aggregation assay (RIPA), murine platelet rich plasma", "type": "cell-based, mouse", "description": "In Ristocetin-induced platelet aggregation assays (RIPA), platelet GPIb a binding to wild type human VWF or mouse VWF was analyzed in the absence or presence of ristocetin as described previously (Inbal, et al., 1993). In this method, platelet rich plasma (PRP) is placed in a clear cuvette containing a stir bar and inserted into the aggregometer. Platelet aggregation is induced by the addition of ristocetin. […] In fact, only at concentrations of 2.5 mg/ml was there any evidence of murine platelet aggregation observed (about 30%, FIG. 10C)."}},
  "note": "“Also recorded” adds a separate entry of the source.",
  "data": [
    {"compound": "COC(=O)[C@H](c1ccccc1Cl)N1CCc2sccc2C1", "note": "[clopidogrel]", "values": [
      {"measurement": "function of the ADP receptor on murine platelets", "setting": "[1]", "result": "can also block the function of the ADP receptor on murine platelets"},
      {"measurement": "thrombus size and formation in mice", "setting": "[2]", "result": "reduce thrombus size and delay its formation"}
    ]},
    {"compound": "VWF^1326R>H: full-length murine plasma VWF containing the 1326R>H mutation", "values": [
      {"measurement": "translocation velocities of human platelets", "setting": "[3]", "result": "3.5±0.1", "unit": "μm/sec"},
      {"measurement": "human platelet accumulation on the surface-immobilized protein", "setting": "[3]; shear rate 1600 s^−1", "result": "bound human platelets at levels comparable with its human counterpart"}
    ]},
    {"compound": "abciximab", "values": [
      {"measurement": "binding or disruption of function of murine αIIb β3", "setting": "[4]", "result": "does not bind or disrupt the function of murine αIIb β3"},
      {"measurement": "duration of disruption of platelet function", "setting": "[5]", "result": "24 to 36", "unit": "h"},
      {"measurement": "αIIb β3 occupancy", "setting": "[5]", "result": "> 80", "unit": "%"},
      {"measurement": "human platelet-induced hemostatic clot formation", "setting": "[6]", "result": "completely disrupted"},
      {"measurement": "human platelet-induced hemostatic clot formation", "setting": "[6]; listed as ReoPro", "result": "prevented the formation of a hemostatic plug"},
      {"measurement": "mean bleeding time", "setting": "[6]; given 5 minutes after infusion of human platelets, bolus 0.25 mg/kg then 0.125 μg/kg/min", "result": 579, "unit": "s"}
    ]},
    {"compound": "murine plasma VWF: plasma VWF of wild type mice", "values": [
      {"measurement": "human platelet deposition as compared with same-species controls", "setting": "[3]; human whole blood, shear rate 1600 s^−1", "result": 10, "unit": "%"}
    ]},
    {"compound": "native human plasma VWF: human plasma VWF", "values": [
      {"measurement": "translocation velocities of human platelets", "setting": "[3]", "result": "3.2±0.1", "unit": "μm/sec"}
    ]},
    {"compound": "plasma VWF containing the human A1 domain: mouse VWF containing the majority of the human A1 domain (amino acids 1240P to 1481G)", "values": [
      {"measurement": "human platelet interactions with the immobilized protein", "setting": "[7]", "result": "could interact at levels observed for human plasma VWF"},
      {"measurement": "mouse platelet interactions with the immobilized protein", "setting": "[8]", "result": "could not support any significant interactions"}
    ]},
    {"compound": "ristocetin", "values": [
      {"measurement": "human platelet aggregation", "setting": "[9]; plasma from VWF^HA1 mice", "result": "cause human platelet aggregation comparable to its human counterpart"},
      {"measurement": "human platelet aggregation", "setting": "[9]; plasma from VWF^R1326H animals", "result": "such was not the case"},
      {"measurement": "murine platelet aggregation", "setting": "[10]; about 1.0 mg/ml", "result": "no such effect; also recorded: had no effect"}
    ]},
    {"compound": "thrombin", "values": [
      {"measurement": "platelet aggregation", "setting": "[10]; incubation of murine PRP with thrombin", "result": "> 90", "unit": "%"}
    ]}
  ]
}
